Like-named read-outs stand apart in the source and are kept apart here.
What was measured:
BTK = BTK (Homo sapiens (Human), UniProt Q06187); assay: Reaction Biology HotSpot kinase assay; assay type: biochemical; conditions: 500 nM compound; read-out: Percentage kinase inhibition BTK
Method in brief: (§1)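 Phosphotransfer from [γ-33P]ATP was quantified after filter binding on P81 paper. Conditions: 20 mM HEPES pH 7.5, 10 mM MgCl2, 0.1 mM Na3VO4, 2 mM DTT, 0.02 mg/mL BSA; ATP 100 μM final; 2 h at room temperature. Compound was dosed at 500 nM.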

HLY-1 = assay: IC50 proliferation assay (Alamar Blue, 72 h); assay type: cell-based; conditions: read-out: IC50 HLY-1 (lymphoma cell line)
Method in brief: (§2)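 Cells seeded ~18 h before treatment with semi-serial compound dilutions made in DMSO then growth medium. After 72 h exposure, Alamar Blue added and read following 4 h further at 37 °C; IC50 for proliferation inhibition.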

MV4-11 [1] = assay: IC50 proliferation assay (Alamar Blue, 72 h); assay type: cell-based; conditions: read-out: IC50 (proliferation inhibition) Cell line - MV4-11
Method in brief: as §2

MiaPaca-2 = assay: IC50 proliferation assay (Alamar Blue, 72 h); assay type: cell-based; conditions: Homo sapiens, MIA PaCa-2; read-out: IC50 MiaPaca-2 (pancreatic cell line)
Method in brief: as §2

TRKC = TRKC (Homo sapiens (Human), UniProt Q16288); assay: Reaction Biology HotSpot kinase assay; assay type: biochemical; conditions: 500 nM compound, 100 μM radiolabeled ATP
Method in brief: (§3)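 HotSpot 33P transfer format. Enzyme, substrate and 500 nM test compound sit together for 20 min, then labelled and unlabelled ATP totalling 100 μM are added and phosphorylation proceeds for 2 h at room temperature. Products are captured on P81 cellulose paper, and activity is expressed relative to DMSO.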

c-kit = c-kit (Homo sapiens (Human), UniProt P10721); assay: Reaction Biology HotSpot kinase assay; assay type: biochemical; conditions: 500 nM compound, 100 μM radiolabeled ATP
Method in brief: as §3

MV4-11 [2] = assay: Activity against AML cell line MV4-11 (CellTiter-Blue, 72 h); assay type: cell-based; conditions: Homo sapiens, MV4-11, 72 h; read-out: IC50 against MV4-11/uM
Method: Cells were added to 96 well plates at 2000 cells per well for adherent lines and 4000 cells per well for suspension lines and kept in an incubator overnight. The following day the plates were treated with compounds to give rise to the final concentrations of; 100 μM, 10 μM, 5 μM 1 μM, 500 nM, 100 nM, 10 nM, […]. The plates were then stored in the incubator for 72 hours. On the third day the cells were assayed with 20 μL of CellTiter—Blue Cell Viability Assay per well and were incubated for 4 hours. After 4 hours' fluorescence intensity was taken on a plate reader: Excitation: 560/10 Emission: 590/10. IC50 analysis was performed on GraphPad Prism 7.

MV4-11 [3] = assay: Anti-proliferative effects in leukemia panel; assay type: cell-based; conditions: for IC50: Homo sapiens, MV4-11, read-out: Anti-proliferative effects in leukemia panel (μM) MV4-11
Method: Molm-14 cells were the kind gift of Dr. Mark Levis from Johns Hopkins University. […] Cell lines were grown and maintained according to ATCC recommendations.
(§4) Cell lines were seeded into 96-well plates the afternoon prior to treatment. Approximately 18 hours later, compounds were semi-serially diluted in dimethyl sulfoxide (DMSO) and then growth medium, and added to cells. Plates were incubated for 72 hours prior to addition of Alamar Blue (Life Technologies. Carlsbad, CA). Plates were read after 4 additional hours of incubation at 37° C. using a Bio-Tek Synergy HT plate reader (Bio-Tek, Winooski. VT). Data was analyzed and graphed using GraphPad Prism Software (Graphpad. La Jolla, CA).

K-562 = assay: Anti-proliferative effects in leukemia panel; assay type: cell-based; conditions: Homo sapiens, K562
Method: (§5) Molm-14 cells were the kind gift of Dr. Mark Levis from Johns Hopkins University. THP-1, MV4-11, K-562 and MRC-5A cells were purchased from ATCC (ATCC, Manassas, VA). All cell lines were grown in 37° C. with 5% CO2 atmosphere with RPMI 1640 (Life technologies, Carlsbad. CA) supplemented with heat-inactivated 10% (V/V) fetal bovine serum. Cell lines were grown and maintained according to ATCC recommendations.
as §4

MOLM14 [4] = assay: Anti-proliferative effects in leukemia panel; assay type: cell-based; conditions: for IC50: Homo sapiens, MOLM-14
Method: as §5, §4

THP-1 = assay: Anti-proliferative effects in leukemia panel; assay type: cell-based; conditions: Homo sapiens
Method: as §5, §4

HL60 = assay: Anti-proliferative effects in leukemia panel; assay type: cell-based; conditions: Homo sapiens, HL-60
FLT3 phosphorylation = assay: Western blot in MV4-11; assay type: cell-based, human
Method: Total protein extracts were prepared using RIPA buffer (SIGMA) supplemented with Complete Mini™ protease inhibitor and PHOStop™ phosphatase inhibitors (Roche). […] The membrane was blocked with 5% dry milk in 1×TBS/0.1% Tween 20 (TBST) for at least 1 h at room temperature and incubated with human specific primary antibodies: FLT3, Phospho-FLT3, c-Myc (Cell Signaling Technologies), KRAS (Santa Cruz), or mouse anti-β-actin (SIGMA) overnight at 4° C. The membrane was washed 3 times in TBST and incubated with a horseradish peroxidase-conjugated secondary anti-rabbit or anti-mouse antibody (Cell Signaling Technologies) for 1 h at room temperature. Blots were again washed and the signal was detected with SuperSignal West Femto Chemiluminescent Substrate (Pierce) and exposed to HyBlot CL® autoradiography film (Denville).

STAT5 phosphorylation = assay: Western blot in MV4-11; assay type: cell-based, human
Method: Effect of HSW630-1 on protein expression was tested in the MV4-11 leukemia cell line. Total protein extracts were prepared using RIPA buffer (SIGMA) supplemented with Complete Mini™ protease inhibitor and PHOStop™ phosphatase inhibitors (Roche). Equal amounts of proteins (up to 25 μg) were separated on 4-12% NuPAGE gels in 1×MOPS or 1×MES buffer (Invitrogen) and transferred onto PVDF membranes (Millipore). The membrane was blocked with 5% dry milk in 1×TBS/0.1% Tween 20 (TBST) for at least 1 h at room temperature and incubated with human specific primary antibodies: FLT3, Phospho-FLT3, c-Myc (Cell Signaling Technologies), KRAS (Santa Cruz), or mouse anti-β-actin (SIGMA) overnight at 4° C. The membrane was washed 3 times in TBST and incubated with a horseradish peroxidase-conjugated secondary anti-rabbit or anti-mouse antibody (Cell Signaling Technologies) for 1 h at room temperature. Blots were again washed and the signal was detected with SuperSignal West Femto Chemiluminescent Substrate (Pierce) and exposed to HyBlot CL® autoradiography film (Denville).
To determine if the phosphorylation of FLT3, SRC kinase and downstream effectors or kinases (such as STAT3 [44], STAT5 [45] and p-38 [46]) could be affected by the compounds. […] The level of SRC kinase increased over time (amount at the 48 h time point is greater than at the 6 and 24 h time points). Unfortunately the bands for the phosphorylated SRC kinase are blurred despite repeated attempts to get clearer bands. […] From the above Western analyses, it is confirmed that the proliferation inhibition of MV4-11 is due to the inhibition of FLT3 signaling axis.

FLT3 ITD = FLT3 ITD (Homo sapiens, UniProt P36888); assay: DiscoverX Kd Elect binding
Excerpt: (§6) Although the current drugs on the market or in clinical trials are relatively successful in killing the AML leukemia cells, they currently are unable to deal with secondary mutations that occur after TKI treatment, such as FLT3 ([…]).

FLT3 (ITD, F691L) = FLT3 (ITD, F691L) (Homo sapiens, UniProt P36888, F691L/ITD); assay: DiscoverX Kd Elect binding; conditions: read-out: Kd FLT3 (ITD, F691L)
MV4-11 [5] = assay: IC50 determination (proliferation assay, CellTiter-Blue); assay type: cell-based
Method: (§7) Cell lines were seeded into 96-well plates the afternoon prior to treatment. Approximately 18 hours later, compounds were diluted in dimethyl sulfoxide (DMSO) and added to cells. Plates were incubated for 72 hours and cells viability determined with CellTiter-Blue Cell Viability Assay (Promega, Madison, WI). Plates were read after 4 additional hours of incubation at 37° C. using plate reader (Bio-Tek, Winooski. VT). Data was analyzed and graphed using GraphPad Prism Software (Graphpad. La Jolla, CA). […]

NCI H1703 (NSCLC) = assay: Activity against lung cancer cell line; assay type: cell-based
MV4-11 [6] = assay: In vivo efficacy, NSG mice injected with MV4-11; conditions: 25 mg/kg, three times per week, NSG mice with MV4-11
Method: Method: Six week old female NSG mice were injected intravenously with 1×10^6 logarithmically growing MV4-11 cells expressing luciferase (MV4-11). Luciferase expressing leukemia cells were imaged using the IVIS Xenogen system (Perkin Elmer, Waltham MA). On day of imaging, mice are injected IP with 150 mg/kg luciferin (Perkin Elmer, Waltham, MA), anaesthetized and then placed in imaging chamber. Maximal luminescence is recorded and then averaged among each treatment group. Ten days post cell injection, mice were imaged and then sorted into groups so that leukemic burden was similar and dosing started. Mice were dosed either with vehicle (10% DMSO/10% Tween 20/80% saline) or 25 mg/kg of compounds three times per week for the duration of the experiment. Mice were weighed and observed five days per week and imaged once per week.

FGFR1 = FGFR1 (Homo sapiens (Human), UniProt P11362); assay: Reaction Biology HotSpot kinase assay; assay type: biochemical; conditions: 500 nM compound
Method in brief: as §3

RET = RET (Homo sapiens (Human), UniProt P07949); assay: Reaction Biology HotSpot kinase assay; assay type: biochemical; conditions: 500 nM compound
Method in brief: as §1

c-Src = c-Src (Homo sapiens (Human), UniProt P12931); assay: Reaction Biology HotSpot kinase assay; assay type: biochemical; conditions: 500 nM compound
Method in brief: as §1

FLT3 = FLT3 (Homo sapiens (Human), UniProt P36888); assay: DiscoverX Kd Elect binding
Excerpt: as §6
HCK is expressed more in human primary leukemic stem cells than in human normal hematopoietic stem cells. […] Other protein kinases such as SYK, BRAF, p38 (p38MAPK), PDGFRα/β, FGFR1, RET, FLT4, Tie2 have also been linked to leukemia. […] (Table 9). The inhibition of the Src-kinase family could be important clinically because these kinases are downstream of FLT3. In the event of FLT3 mutation, the inhibition of the Src-family kinases could still lead to proliferation inhibition.

K562 = assay: IC50 proliferation assay (Alamar Blue, 72 h); assay type: cell-based
MV-4-11 = assay: Proliferation inhibition at single concentration (CellTiter-Blue); assay type: cell-based; conditions: 1 μM compound
HCT116 = assay: as above; assay type: cell-based; conditions: 1 μM compound
HeLa = assay: as above; assay type: cell-based; conditions: 1 μM compound
MCF-7 = assay: as above; assay type: cell-based; conditions: 1 μM compound
MOLM14 [7] = assay: IC50 determination (proliferation assay, CellTiter-Blue); assay type: cell-based
Method: as §7

Sequence of c-kit (P10721 26-976): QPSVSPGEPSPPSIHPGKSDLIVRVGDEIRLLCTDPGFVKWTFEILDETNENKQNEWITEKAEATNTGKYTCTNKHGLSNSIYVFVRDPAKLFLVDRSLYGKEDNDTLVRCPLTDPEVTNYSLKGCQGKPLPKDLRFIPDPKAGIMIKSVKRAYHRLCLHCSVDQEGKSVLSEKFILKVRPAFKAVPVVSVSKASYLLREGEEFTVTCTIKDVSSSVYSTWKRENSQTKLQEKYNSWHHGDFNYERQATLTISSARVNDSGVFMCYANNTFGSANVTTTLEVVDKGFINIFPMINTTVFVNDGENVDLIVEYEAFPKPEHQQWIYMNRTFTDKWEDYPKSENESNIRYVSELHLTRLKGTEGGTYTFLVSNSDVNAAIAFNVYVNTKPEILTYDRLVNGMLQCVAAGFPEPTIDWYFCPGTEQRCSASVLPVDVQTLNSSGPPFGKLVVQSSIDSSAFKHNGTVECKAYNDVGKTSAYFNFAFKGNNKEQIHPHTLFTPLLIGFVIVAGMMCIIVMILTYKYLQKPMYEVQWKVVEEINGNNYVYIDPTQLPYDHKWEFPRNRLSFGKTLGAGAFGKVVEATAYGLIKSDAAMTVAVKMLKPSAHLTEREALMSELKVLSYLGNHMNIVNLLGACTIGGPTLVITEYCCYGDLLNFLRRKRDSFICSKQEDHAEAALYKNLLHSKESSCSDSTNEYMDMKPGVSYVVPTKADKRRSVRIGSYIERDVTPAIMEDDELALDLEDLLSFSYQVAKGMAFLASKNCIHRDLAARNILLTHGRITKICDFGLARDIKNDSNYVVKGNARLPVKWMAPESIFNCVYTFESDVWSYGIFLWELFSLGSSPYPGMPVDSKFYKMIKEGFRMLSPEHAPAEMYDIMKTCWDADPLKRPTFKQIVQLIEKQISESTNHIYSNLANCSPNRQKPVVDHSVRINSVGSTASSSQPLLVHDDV
Sequence of FLT3 ITD (P36888 whole entry, looked up, change not shown): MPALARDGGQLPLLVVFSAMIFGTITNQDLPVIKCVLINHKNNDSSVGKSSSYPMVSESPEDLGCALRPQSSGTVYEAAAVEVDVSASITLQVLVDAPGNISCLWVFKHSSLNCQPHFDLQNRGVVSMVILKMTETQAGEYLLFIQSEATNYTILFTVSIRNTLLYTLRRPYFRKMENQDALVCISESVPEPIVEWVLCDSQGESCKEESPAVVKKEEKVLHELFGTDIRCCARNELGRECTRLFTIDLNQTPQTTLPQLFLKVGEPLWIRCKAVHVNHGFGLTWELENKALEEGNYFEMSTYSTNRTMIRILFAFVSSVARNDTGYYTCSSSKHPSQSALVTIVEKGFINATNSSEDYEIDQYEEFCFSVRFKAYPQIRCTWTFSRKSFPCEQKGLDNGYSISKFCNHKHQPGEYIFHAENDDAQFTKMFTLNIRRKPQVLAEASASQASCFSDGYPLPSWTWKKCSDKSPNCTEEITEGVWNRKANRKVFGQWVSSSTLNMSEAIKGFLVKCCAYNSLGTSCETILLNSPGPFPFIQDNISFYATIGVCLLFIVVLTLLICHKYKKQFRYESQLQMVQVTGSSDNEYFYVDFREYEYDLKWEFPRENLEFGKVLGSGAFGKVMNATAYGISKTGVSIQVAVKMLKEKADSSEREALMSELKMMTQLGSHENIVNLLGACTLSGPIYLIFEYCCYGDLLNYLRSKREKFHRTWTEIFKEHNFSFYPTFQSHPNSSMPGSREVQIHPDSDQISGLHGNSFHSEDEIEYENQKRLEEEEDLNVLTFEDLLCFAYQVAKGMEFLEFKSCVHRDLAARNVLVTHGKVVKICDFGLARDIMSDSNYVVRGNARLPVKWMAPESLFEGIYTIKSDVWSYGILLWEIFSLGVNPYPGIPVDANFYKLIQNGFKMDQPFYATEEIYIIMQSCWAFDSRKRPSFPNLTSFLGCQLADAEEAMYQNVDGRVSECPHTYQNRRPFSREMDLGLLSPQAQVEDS
Sequence of TRKC (Q16288 32-839): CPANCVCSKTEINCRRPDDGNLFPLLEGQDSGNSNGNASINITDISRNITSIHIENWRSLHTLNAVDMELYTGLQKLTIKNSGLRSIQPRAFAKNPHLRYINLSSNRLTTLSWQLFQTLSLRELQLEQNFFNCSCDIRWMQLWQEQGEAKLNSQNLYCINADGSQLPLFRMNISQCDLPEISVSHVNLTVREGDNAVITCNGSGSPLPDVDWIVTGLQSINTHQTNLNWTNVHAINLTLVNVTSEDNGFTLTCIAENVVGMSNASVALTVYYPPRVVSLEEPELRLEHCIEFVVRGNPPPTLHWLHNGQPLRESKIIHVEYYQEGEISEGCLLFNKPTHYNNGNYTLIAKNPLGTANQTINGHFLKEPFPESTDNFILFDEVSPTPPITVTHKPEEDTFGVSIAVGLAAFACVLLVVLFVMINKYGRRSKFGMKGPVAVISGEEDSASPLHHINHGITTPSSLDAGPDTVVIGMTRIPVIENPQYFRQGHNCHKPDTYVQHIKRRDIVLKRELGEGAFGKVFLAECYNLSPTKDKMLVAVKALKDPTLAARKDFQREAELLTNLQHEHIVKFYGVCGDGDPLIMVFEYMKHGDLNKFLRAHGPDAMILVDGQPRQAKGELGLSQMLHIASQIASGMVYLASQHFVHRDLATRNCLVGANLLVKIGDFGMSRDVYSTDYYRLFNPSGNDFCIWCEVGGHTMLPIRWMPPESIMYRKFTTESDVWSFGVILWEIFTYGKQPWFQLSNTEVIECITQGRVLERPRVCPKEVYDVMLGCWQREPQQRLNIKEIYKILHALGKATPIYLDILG
Sequence of FLT3 (ITD, F691L) (P36888 whole entry, looked up, stated change not applied): as the sequence (P36888 whole entry, looked up, change not shown) above
Sequence of FLT3 (P36888 27-993): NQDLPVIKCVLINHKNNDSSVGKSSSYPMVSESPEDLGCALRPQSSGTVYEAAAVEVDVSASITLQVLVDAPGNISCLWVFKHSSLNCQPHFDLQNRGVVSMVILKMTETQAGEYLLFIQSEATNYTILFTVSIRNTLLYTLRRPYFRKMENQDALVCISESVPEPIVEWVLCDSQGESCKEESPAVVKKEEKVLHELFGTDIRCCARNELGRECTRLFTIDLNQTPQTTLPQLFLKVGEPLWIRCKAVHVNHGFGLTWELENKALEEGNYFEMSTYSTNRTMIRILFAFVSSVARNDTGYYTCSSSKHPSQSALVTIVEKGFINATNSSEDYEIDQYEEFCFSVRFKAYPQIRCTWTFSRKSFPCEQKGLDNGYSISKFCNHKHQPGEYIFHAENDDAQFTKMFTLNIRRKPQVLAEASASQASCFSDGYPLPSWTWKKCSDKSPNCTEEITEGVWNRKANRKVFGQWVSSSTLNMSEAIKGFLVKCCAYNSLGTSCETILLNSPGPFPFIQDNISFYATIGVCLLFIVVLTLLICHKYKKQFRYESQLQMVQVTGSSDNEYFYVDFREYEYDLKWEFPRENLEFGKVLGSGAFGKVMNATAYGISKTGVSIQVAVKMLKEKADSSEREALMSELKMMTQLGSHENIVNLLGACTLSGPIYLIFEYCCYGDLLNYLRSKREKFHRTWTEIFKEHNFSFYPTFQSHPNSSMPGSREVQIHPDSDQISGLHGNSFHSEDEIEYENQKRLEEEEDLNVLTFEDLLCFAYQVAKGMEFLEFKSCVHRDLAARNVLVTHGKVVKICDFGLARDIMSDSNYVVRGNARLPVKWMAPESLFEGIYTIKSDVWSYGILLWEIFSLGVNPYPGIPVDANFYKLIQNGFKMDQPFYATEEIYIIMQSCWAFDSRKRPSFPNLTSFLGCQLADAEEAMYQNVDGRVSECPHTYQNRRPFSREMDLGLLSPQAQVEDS
Sequence of c-Src (P12931 whole entry, looked up): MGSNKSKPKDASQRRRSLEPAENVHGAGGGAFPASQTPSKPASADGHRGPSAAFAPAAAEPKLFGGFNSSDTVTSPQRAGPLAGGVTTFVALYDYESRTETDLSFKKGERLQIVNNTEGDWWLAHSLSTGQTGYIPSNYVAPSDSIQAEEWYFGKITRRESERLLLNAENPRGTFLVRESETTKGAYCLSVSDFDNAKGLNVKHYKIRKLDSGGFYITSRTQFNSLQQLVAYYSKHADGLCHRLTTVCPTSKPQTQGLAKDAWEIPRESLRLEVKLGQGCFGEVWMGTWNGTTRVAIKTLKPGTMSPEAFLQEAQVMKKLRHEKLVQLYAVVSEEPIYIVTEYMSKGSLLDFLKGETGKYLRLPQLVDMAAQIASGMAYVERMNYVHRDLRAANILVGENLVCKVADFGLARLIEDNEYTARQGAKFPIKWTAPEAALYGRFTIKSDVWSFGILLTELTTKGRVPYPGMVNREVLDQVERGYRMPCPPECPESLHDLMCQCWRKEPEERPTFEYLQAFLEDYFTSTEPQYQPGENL
Sequence of FGFR1 (P11362 22-822): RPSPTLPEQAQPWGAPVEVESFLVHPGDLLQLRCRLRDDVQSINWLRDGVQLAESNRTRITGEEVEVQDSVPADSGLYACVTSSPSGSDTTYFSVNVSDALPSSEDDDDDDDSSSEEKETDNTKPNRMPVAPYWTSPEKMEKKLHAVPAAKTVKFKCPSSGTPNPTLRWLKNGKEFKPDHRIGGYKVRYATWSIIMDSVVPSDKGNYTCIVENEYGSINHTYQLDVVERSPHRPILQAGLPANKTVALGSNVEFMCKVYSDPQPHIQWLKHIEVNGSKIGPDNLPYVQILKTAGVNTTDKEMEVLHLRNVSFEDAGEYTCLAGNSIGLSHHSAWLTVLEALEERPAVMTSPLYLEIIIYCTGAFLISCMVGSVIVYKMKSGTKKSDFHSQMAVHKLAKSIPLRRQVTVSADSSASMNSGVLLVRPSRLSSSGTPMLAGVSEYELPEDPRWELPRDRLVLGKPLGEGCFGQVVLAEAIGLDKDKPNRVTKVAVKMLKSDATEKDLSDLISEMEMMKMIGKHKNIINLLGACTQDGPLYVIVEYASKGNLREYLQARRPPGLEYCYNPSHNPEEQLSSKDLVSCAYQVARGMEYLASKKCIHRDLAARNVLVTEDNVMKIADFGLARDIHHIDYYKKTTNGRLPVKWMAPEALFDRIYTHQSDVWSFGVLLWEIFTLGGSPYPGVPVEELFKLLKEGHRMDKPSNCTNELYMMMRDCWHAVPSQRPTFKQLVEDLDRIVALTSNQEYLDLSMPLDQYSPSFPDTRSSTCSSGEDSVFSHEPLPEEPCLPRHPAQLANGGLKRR

CC1(C)CNC(c2ccc(C#Cc3cc(N)nc4ccccc34)cc2F)=N1 [HSM1856, 4-((4-(4,4-dimethyl-4,5-dihydro-1H-imidazol-2-yl)-3-fluorophenyl)ethynyl)quinolin-2-amine]
inhibition at 0.5 µM (BTK): 70% | IC50 (HLY-1): 80 nM | IC50 (MV4-11 [1]; Homo sapiens, MV4-11, 72 h): 25 nM | IC50 (MiaPaca-2): 400 nM

Nc1ncc2ccc(Cl)cc2c1C#Cc1ccc(C2=NCCN2)cc1 [HSM1651, 6-chloro-4-((4-(4,5-dihydro-1H-imidazol-2-yl)phenyl)ethynyl)isoquinolin-3-amine]
inhibition at 0.5 µM (TRKC): 64% | inhibition at 0.5 µM (c-kit): 83% | IC50 (MV4-11 [2]): 0.008 µM | anti-proliferative activity in words, MV4-11 / AML cell lines (MV4-11 [3]): good inhibitor | IC50 (MV4-11 [3]): 0.05 ± 0.01 µM | IC50 (K-562): 1.39 µM | anti-proliferative activity in words, MOLM-14 (MOLM14 [4]): good inhibitor | IC50 (MOLM14 [4]): 0.11 µM | IC50 (THP-1): 1.85 µM | IC50 (HL60): 3.05 µM | FLT3 phosphorylation (Western) (FLT3 phosphorylation): reduced | STAT5 phosphorylation (Western) (STAT5 phosphorylation): reduced

Cc1ncc(C(=O)Nc2ccc(CN3CCN(C)CC3)c(C(F)(F)F)c2)cc1C#Cc1c(N)ncc2ccc(F)cc12 [HSN431]
Kd (FLT3 ITD): 4.8 nM | Kd (FLT3 (ITD, F691L)): 57 nM | IC50 (MV4-11 [5]): < 1 nM | IC50 (NCI H1703 (NSCLC)): 247 nM | in-vivo efficacy (survival) (MV4-11 [6]): efficacious

Cc1ccc(C(=O)NCC(O)CN(C)C)cc1C#Cc1c(N)ncc2ccc(Cl)cc12 (centres unmarked) [HSN178]
Percentage kinase inhibition FGFR1 (FGFR1): 3% | Percentage kinase inhibition RET (RET): 0% | Percentage kinase inhibition c-Src (c-Src): 1% | Kd (FLT3): 53 nM | Kd (FLT3 ITD): 450 nM | IC50 (K562; 72 h, read-out: IC50 (proliferation inhibition) Cell line - K562): 1440 nM | IC50 (K562; Table 18, read-out: Inhibition of proliferation of K562 cell lines (CML)): 1443 ± 0.21 nM | IC50 (MV4-11 [1]; 72 h): 171 nM | Percent inhibition of proliferation MV-4-11 (MV-4-11): 98% | Percent inhibition of proliferation HCT116 (HCT116): 97% | Percent inhibition of proliferation HeLa (HeLa): 100% | Percent inhibition of proliferation MCF-7 (MCF-7): 100% | IC50 (MOLM14 [7]): 187 ± 5.5 nM | IC50 (MV4-11 [5]): 144 ± 2.6 nM | proliferation inhibition in words, MV4-11 / AML (MV4-11 [5]): only moderate inhibitors

N=C(N)c1ccc(/N=N/c2c(N)ncc3ccc(Br)cc23)cc1 [HSW630-1]
inhibition at 0.5 µM (c-kit): 68% | IC50 (MV4-11 [3]): 0.15 ± 0.01 µM | IC50 (K-562): 3 µM | IC50 (MOLM14 [4]): 0.15 ± 0.01 µM | IC50 (THP-1): 1.2 µM

Source: US20250084039A1, “4-SUBSTITUTED AMINOISOQUINOLINE DERIVATIVES” (Purdue Research Foundation, priority 2016, published 2025)
